According to US7629135B2, “Toll-like receptor agonists and antagonists and methods of use thereof” (The Board of Trustees of the University of Illinois, priority 2006, dated 2009):

Key:
[1] = test system: TLR2-HeLa cells; experiment: MAP kinase phosphorylation and IκBα degradation in TLR2-HeLa cells (Western blotting); type: cell-based, human; conditions: mock-transfected HeLa cells, 10 min; SAA 1 μM, Pam3CSK4 1 μg/ml
Description: FIG. 8 is a series of protein gels and corresponding Western blotting graphs showing that SAA-induced TLR2-dependent signaling in transfected cells. Serum-starved TLR2-HeLa and mock-transfected HeLa cells were stimulated with SAA (1 μM) or Pam3CSK4 (1 μg/ml) for the indicated time. The phosphorylation level of ERK1/2 (A), p38 (B) and JNK (C) was detected by Western blotting using antibodies recognizing the phosphorylated forms of the MAP kinases (blots). (D) The level of cytoplasmic IκB ? was detected by Western blotting using an anti-IκB ? antibody and the β-actin levels in the corresponding samples were shown as loading controls. […] A representative set of data, from 3 repeating experiments, is presented.

[2] = target: T1, TLR2:Fc fusion protein (Homo sapiens, UniProt O60603); experiment: SAA-TLR2 interaction, ELISA-like binding assay; conditions: 0.0625 to 8 μg/ml ligand coated, 2 μg/ml TLR2:Fc
T1 construct: measured in an ELISA-like assay using a TLR2 extracellular domain:Fc fragment fusion protein; made in house; host or cells: CHO cells (pFuse-Fc vector, InvivoGen), purified from culture supernatant on protein A
T1 sequence (O60603 21-588 limits assumed): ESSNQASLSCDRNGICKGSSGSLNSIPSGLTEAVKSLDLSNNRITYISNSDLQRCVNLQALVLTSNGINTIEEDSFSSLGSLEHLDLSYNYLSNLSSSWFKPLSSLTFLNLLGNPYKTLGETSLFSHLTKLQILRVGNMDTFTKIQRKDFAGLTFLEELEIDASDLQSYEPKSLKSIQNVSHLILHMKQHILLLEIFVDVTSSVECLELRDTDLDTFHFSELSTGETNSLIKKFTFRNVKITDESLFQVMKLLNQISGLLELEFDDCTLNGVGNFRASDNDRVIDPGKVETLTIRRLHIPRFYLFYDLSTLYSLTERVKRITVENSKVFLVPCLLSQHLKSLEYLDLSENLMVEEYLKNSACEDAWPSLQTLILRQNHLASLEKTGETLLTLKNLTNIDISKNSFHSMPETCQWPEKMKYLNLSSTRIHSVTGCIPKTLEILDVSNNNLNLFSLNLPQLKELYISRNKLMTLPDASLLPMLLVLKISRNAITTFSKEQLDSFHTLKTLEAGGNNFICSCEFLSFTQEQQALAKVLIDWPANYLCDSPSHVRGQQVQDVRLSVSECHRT
From the text: Another example of a method for screening antagonists that disrupt the SAA/TLR2 interaction involves a binding assay that includes a TLR2 ectodomain (extracellular domain) fused to an Fc fragment of immunoglobulin (TLR2:Fc), such as the assay used in FIG. 9B. This assay is typically used as a follow-up or secondary assay to that assay described above. In other words, any compounds collected from the assay described above are subjected to the TLR2:Fc-based binding assay to confirm that the antagonistic effect is on the disruption of SAA-TLR2 binding. This method is generally carried out as follows and is also described in the Examples. A TLR2:Fc fusion protein is generated such that the N-terminal 588 amino acids of human TLR2 are fused in frame to the Fc portion of mouse IgG2a. The cDNA encoding for the resulting chimeric protein is cloned in pFuse-Fc vector (InvivoGen), and stably transfected into CHO cells. […] Absorbance at 450 nm is measured on a SpectraMax 340 plate reader (Molecular Devices).
Assays for SAA-TLR2 interaction: The TL2:Fc fusion protein was generated such that the N-terminal 588 amino acids of human TLR2 protein were fused in frame with the Fc portion of mouse IgG2a. […] Absorbance at 450 nm was measured on a SpectraMax 340 plate reader (Molecular Devices). […]

Pam3CSK4 [reference compound]
ERK1/2 phosphorylation in mock-transfected cells [1]: not
binding to TLR2:Fc fusion protein [2]: directly bind to the ectodomain
